Experimental data from US20230372232A1, “ORAL CARE COMPOSITION COMPRISING SWEET POTATO-DERIVED POTATO SYRUP OR SUPERNATANT OF POTATO SYRUP” (KARAIMO NOJYO CO., LTD., priority 2020, published 2023).

Key:
Streptococcus mutans [1] = experiment: Tooth plaque formation inhibition, crystal violet A570 (Test Examples 3 and 4); format: cell-based; settings: 1% concentration sucrose (sample 8); BHI medium, 37° C., 48 hours
Protocol: A basic sample (a sample 8) was produced by impregnating 1% concentration sucrose (white sugar) in a BHI medium of twice the normal concentration and adding 0.1 mL of Streptococcus mutans liquid (approximately 1000 bacterial bodies) thereto. Next, another sample (a sample 9) in which the sucrose (white sugar) was not at all impregnated in the basic sample (the sample 8) was produced. There were also individually produced a sample (10) in which 10% of the potato syrup of Example 1-A was added instead of the 1% concentration sucrose (white sugar) to the basic sample (the sample 8), a sample (11) in which 10% of the potato syrup of Example 1-B was added instead of the 1% concentration sucrose (white sugar) to the basic sample (the sample 8), and a sample (12) in which 10% of the potato syrup of Example 1-C was added instead of the 1% concentration sucrose (white sugar) to the basic sample (the sample 8). The respective samples were subject to a culture process at 37° C. for 48 hours. […] Then, the pigment was eluted with 0.2 mL of 99.5% ethanol, and the absorbance (570 nm) was measured. Based on the results, the plaque (tooth plaque) formation inhibition rates (%) were calculated. The results are shown in FIG. 3. plaque formation inhibition rate (%)=[A570(no sucrose added)−A570 (sample added)]/A570(no sucrose added)×100 A570: absorbance of crystal violet eluted with ethanol at 570 nm. […]

Streptococcus mutans [2] = experiment: Tooth plaque formation inhibition by potato syrup with malt, crystal violet A570 (Test Example 6); format: cell-based; settings: 1% concentration sucrose; BHI medium, 37° C., 48 hours
Protocol: A basic sample was produced by impregnating 1% concentration sucrose (white sugar) in a BHI medium and adding 0.1 mL of Streptococcus mutans liquid (approximately 1000 bacterial bodies) thereto. Next, another additive-free sample in which the sucrose (white sugar) was not at all impregnated in the basic sample was produced. There were also individually produced a sample in which 10% of the potato syrup with malt of Example 3 was added instead of the 1% concentration sucrose (white sugar) to the basic sample and a sample in which 10% of the potato syrup of Example 1-B was added instead of the 1% concentration sucrose (white sugar) to the basic sample. The respective samples were subject to a culture process at 37° C. for 48 hours. Afterwards, the supernatant liquids of the culture fluids were discarded, and then, the respective samples were washed twice with 0.2 mL of distilled water. Afterwards, 0.2 mL each of 0.1% crystal violet were added to each of the samples, a stir staining operation was performed for 20 minutes, and then, the staining fluids were discarded. The residues were washed twice with 0.2 mL of distilled water. Then, the pigment was eluted with 0.2 mL of 99.5% ethanol and the absorbance (570 nm) was measured. Based on the results, the plaque (tooth plaque) formation inhibition rates (%) were calculated.

## OC[C@H]1O[C@@](CO)(O[C@H]2O[C@H](CO)[C@@H](O)[C@H](O)[C@H]2O)[C@@H](O)[C@@H]1O [sucrose]
Streptococcus mutans [1]
  plaque (tooth plaque) formation: the plaque (tooth plaque) rapidly grew
Streptococcus mutans [2]
  plaque (tooth plaque) formation: the plaque (tooth plaque) rapidly grew
